From patent publication US5962500A, “Insulin sensitivity with angiotensin II receptor blocking imidazoles” (priority 1994, dated 1999)
Counter-ions that a name gives are not always drawn.

Key:
pressor response to AII = assay: Inhibition of the pressor response to AII in conscious dogs; assay type: in vivo, dog
Protocol: (§1) The hypotensive effects of 2-butyl-4-chloro-1-[2'-(1H-tetrazol-5-yl)biphenyl-4-yl)methyl]-5-hydroxymethylimidazole sodium salt were compared before and after furosemide administration to conscious dogs. […] Plasma renin activity (PRA) in these animals was 1.5±0.5 ng AI/ml/hr. Four days later, furosemide was given to three of these dogs at 10 mg/kg im at 18 and 2 hours before the experiment and increased PRA to 19.9±7.2 ng AI/ml/hr. […] Thus a combined therapy of these two classes of drugs will be likely to increase the response rate to therapy among hypertensive patients.

conscious dogs = assay: Hypotensive effects in conscious dogs before and after furosemide; assay type: in vivo, dog
Protocol: as §1

[1] = target: AII receptor (rat adrenal cortical microsomes); assay: Angiotensin II receptor binding (displacement of 3H-AII); settings: 2 nM 3H-AII, 1 hour at room temperature
Protocol: The hormone angiotensin II (AII) produces numerous biological responses (e.g. vasoconstriction) through stimulation of its receptors on cell membranes. […] The reaction mixture contained rat adrenal cortical microsomes (source of AII receptor) in Tris buffer and 2 nM of ^3 H-AII with or without potential AII antagonist. This mixture was incubated for 1 hour at room temperature and the reaction was subsequently terminated by rapid filtraton and rinsing through glass micro-fibre filter. Receptor-bound ^3 H-AII trapped in filter was quantitiated by scintillation counting.

[2] = tested on: awake rats made hypertensive by ligation of the left renal artery; assay: Antihypertensive effects in renal hypertensive rats; assay type: in vivo, rat
Protocol: This procedure increases blood pressure by increasing renin production with consequent elevation of AII levels. Compounds are administered orally at 100 mg/kg and/or intravenously via a cannula in the jugular vein at 10 mg/kg. Arterial blood pressure is continuously measured directly through a carotid artery cannula and recorded using a pressure transducer and a polygraph. Blood pressure levels after treatment are compared to pretreatment levels to determine the antihypertensive effects of the compounds (See Table 1).
Compounds listed in Table 2 were tested in the same manner as described for Table 1, except that in the test for antihypertensive effects in renal hypertensive rats, the compounds were administered orally at 30 mg/kg and intravenously at 3 mg/kg.

[3] = tested on: patients with severe hypertension; assay: Baseline plasma catecholamines (radioenzymatic); assay type: in vivo, human
Protocol: (§2) At the time of the study only a three day wash-out period was allowed due to the severity of their hypertension.
(§3) A euglycemic glucose clamp procedure was performed three days after the initial screening, and after withdrawl from previous antihypertensive medications.
The euglycemic hyperinsulinemic glucose "clamp" was performed using a modification of the method described by DeFronzo, et al. Am. J. Physiol. 1979:237: E214-23, as previously detailed by Moan, et al., Metabolism, in press. Insulin was infused at a fixed rate of 1 mU/kg/min. This technique for measuring the glucose disposal rate has a day-to-day coefficient of less than 5% percent. […] The steady state levels of insulin varied from one person to another, and as a result the insulin sensitivity index was also calculated. This index is a ratio of the glucose disposal rate to the mean level of insulin during the last 20 minutes of the glucose clamp multiplied by 100, and is given arbitrary units. Blood for baseline adrenaline and noradrenaline were sampled in duplicate and the results averaged.
(§4) Fasting glucose was determined enzymatically, using a glucose dehydrogenase method and a Cobas Bio analyzer (Roche, Basel Switzerland). A Reflolux II (Mannheim Boehringer GmbH, Mannheim, Germany) was utilized to measure glucose concentration during the glucose clamp procedure (within run coefficient of variation <3% in our laboratory). Fructosamine was determined by calorimetric method. Insulin was measured by radioimmunoassay technique, using a specific antibody from Linco Research Inc. (St. Louis, Mo., USA). The lower limit of detection is 5 mU/l cross reactivity with proinsulin less than 1% and intra-assay coefficient of variation below 9% at all levels. Plasma catecholamines from specialized venous blood were measured by the radioenzymatic technique of Peuler Johnson as detailed in Kjelsen et al., Scan. J. Clin. Invest. 1993:42:217-23. Blood pressure and heart rate were measured oscillometrically with an Omega 1000™ Adult/Pediatric Blood Pressure Recorder (INVIVO Research Laboratories Inc., Tulsa Okla., USA).

[4] = tested on: patients with severe hypertension; assay: Blood pressure and heart rate (oscillometric); assay type: in vivo, human; settings: after Losartan
Protocol: as §2, §3, §4

[5] = tested on: patients with severe hypertension; assay: Euglycemic hyperinsulinemic glucose clamp (insulin sensitivity); assay type: in vivo, human
Protocol: as §2, §3
The euglycemic hyperinsulinemic glucose "clamp" was performed using a modification of the method described by DeFronzo, et al. Am. J. Physiol. 1979:237: E214-23, as previously detailed by Moan, et al., Metabolism, in press. Insulin was infused at a fixed rate of 1 mU/kg/min. […] This index is a ratio of the glucose disposal rate to the mean level of insulin during the last 20 minutes of the glucose clamp multiplied by 100, and is given arbitrary units. Blood for baseline adrenaline and noradrenaline were sampled in duplicate and the results averaged.

[6] = tested on: patients with severe hypertension; assay: Fasting glucose, fructosamine and insulin; assay type: in vivo, human; settings: after Losartan
Protocol: as §2, §3, §4

[7] = tested on: renal vasoconstrictor effect of NSAIDs; settings: cited from earlier work
[8] = tested on: effects of AII on the blood pressure of pithed rats; settings: cited from earlier work
arterial pressure = settings: cited from earlier work
Plasma renin activity = Plasma renin activity (PRA) in conscious dogs; assay type: in vivo, dog; settings: furosemide 10 mg/kg im at 18 and 2 hours before; three dogs; before furosemide 1.5±0.5
Protocol: as §1

CCCCc1nc(Cl)c(CO)n1Cc1ccc(-c2ccccc2-c2nn[nH]n2)cc1 [2-butyl-4-chloro-1-[2'-(1H-tetrazol-5-yl)biphenyl-4-yl)methyl]-5-hydroxymethylimidazole sodium salt]
inhibition of pressor response to AII (pressor response to AII; after furosemide, cumulative iv, same doses): inhibited the pressor response to AII at the two higher doses
inhibition of pressor response to AII (pressor response to AII; before furosemide, AII 0.1 μg/kg iv, 10 min post dose, cumulative iv 0.3 to 3 mg/kg): effective in inhibiting the pressor response to AII
blood pressure lowering (conscious dogs; conscious dogs after furosemide 10 mg/kg im at 18 and 2 hours before, cumulative iv, same doses): significant decrease in blood pressure in a dose-dependent manner
blood pressure lowering (conscious dogs; normotensive conscious dogs, before furosemide, cumulative iv 0.3 to 3 mg/kg, n=4): did not lower blood pressure

CCCCc1nc(Cl)c(C(=O)O)n1Cc1ccc(-c2ccccc2-c2nn[nH]n2)cc1 [EXP-3174]
IC50 [1]: 0.011 µM
Antihypertensive Effects in Renal Hypertensive Rats, Intravenous Activity ([2]; Table 2, 3 mg/kg): + (Significant decrease in blood pressure at 3.0 mg/kg or less)
Antihypertensive Effects in Renal Hypertensive Rats, Oral Activity ([2]; Table 2, 30 mg/kg): + (Significant decrease in blood pressure at 30 mg/kg or less)

CCCCc1nc(Cl)c(CO)n1Cc1ccc(-c2ccccc2-c2nnn[nH]2)cc1 [Losartan, 2-n-butyl-4-chloro-5-hydroxymethyl-1-[(2'-(1H-tetrazol-5-yl)biphenyl-4-yl)methyl]imidazole]
decrease in baseline plasma noradrenaline ([3]; Losartan vs before treatment, p<0.05): 40%
plasma adrenaline ([3]; after Losartan, before treatment 0.23±0.10, n.s.): 0.22 ± 0.11 nmol/L
baseline plasma noradrenaline ([3]; after Losartan, before treatment 1.87±0.53, p<0.05): 1.11 ± 0.13 nmol/L
baseline heart rate ([4]; before treatment 65±9, n.s.): 68±12 beats/min
baseline mean blood pressure ([4]; before treatment 132±10, p<0.05): 119±13 mmHg
Antihypertensive Effects in Renal Hypertensive Rats, Intravenous Activity ([2]; Table 1, 10 mg/kg): + (Significant decrease in blood pressure at 10 mg/kg or less)
Antihypertensive Effects in Renal Hypertensive Rats, Oral Activity ([2]; Table 1, 100 mg/kg): + (Significant decrease in blood pressure at 100 mg/kg or less)
increase in glucose disposal rate ([5]; Losartan vs baseline, p<0.05): 27%
glucose disposal rate ([5]; after Losartan 50-100 mg oral once a day, average about 6 weeks, baseline 6.2±2.6, p<0.05): 7.9±2.6 mg/kg×min
average plasma insulin level during second clamp ([5]; insulin infused 1 mU/kg/min, end of Losartan monotherapy, first clamp 85±11): 80±7 mU/l
fasting glucose ([6]; baseline 5.0±0.3, non-significant): 4.8 ± 0.1 mmol/L
fasting serum insulin ([6]; baseline 12±3, unchanged): 12±2 mU/l
fructosamine ([6]; baseline 227±18, non-significant): 217 ± 11 µmol/L

CNCC(=O)N[C@@H](CCCN=C(N)N)C(=O)N[C@H](C(=O)N[C@@H](Cc1ccc(O)cc1)C(=O)N[C@H](C(=O)N[C@@H](Cc1cnc[nH]1)C(=O)N1CCC[C@H]1C(=O)N[C@@H](C)C(=O)O)C(C)C)C(C)C [Saralasin, [Sar^1, Ala^8] AII]
inhibition of renal vasoconstrictor effect of indomethacin ([7]; dogs): inhibit the renal vasoconstrictor effect
inhibition of renal vasoconstrictor effect of meclofenamate ([7]; dogs): inhibit the renal vasoconstrictor effect
antagonism of the actions of AII ([8]; pithed rats): one of the most potent competitive antagonists of the actions of AII
agonistic actions ([8]; rat, in vivo): possesses agonistic actions of its own
oral efficacy (arterial pressure; oral doses): oral doses being ineffective
duration of pharmacological effects (arterial pressure; parenteral administration): relatively short-lasting
effect on arterial pressure (arterial pressure; pressure dependent on circulating AII): lower arterial pressure in mammals and man
pressor effects (arterial pressure; pressure not sustained by AII): generally elicits pressor effects when the pressure is not sustained by AII

C[C@H](CS)C(=O)N1CCC[C@H]1C(=O)O [captopril]
reversal of renal vasoconstrictor effect of indomethacin ([7]; dogs with non-hypotensive hemorrhage): reverse the renal vasoconstrictor effect of indomethacin

NS(=O)(=O)c1cc(C(=O)O)c(NCc2ccco2)cc1Cl [furosemide]
Plasma renin activity (PRA) (Plasma renin activity): 19.9±7.2 ng AI/ml/hr
